{"source": "ChEMBL document CHEMBL4330071", "about": "(Eur J Med Chem, 2019)", "key": {"[1]": {"biological_target": "Mast/stem cell growth factor receptor Kit (Homo sapiens, UniProt P10721)", "experiment": "Inhibition of human c-KIT assessed as residual activity at 10 uM using poly[Glu:Tyr] (4:1) as substrate preincubated for 20 mins followed by [gamma-33P]-ATP addition and measured after 120 mins by Hotspot assay relative to control"}, "[2]": {"biological_target": "Hepatocyte growth factor receptor (Homo sapiens) (UniProt P08581)", "sequence (P08581 whole entry)": "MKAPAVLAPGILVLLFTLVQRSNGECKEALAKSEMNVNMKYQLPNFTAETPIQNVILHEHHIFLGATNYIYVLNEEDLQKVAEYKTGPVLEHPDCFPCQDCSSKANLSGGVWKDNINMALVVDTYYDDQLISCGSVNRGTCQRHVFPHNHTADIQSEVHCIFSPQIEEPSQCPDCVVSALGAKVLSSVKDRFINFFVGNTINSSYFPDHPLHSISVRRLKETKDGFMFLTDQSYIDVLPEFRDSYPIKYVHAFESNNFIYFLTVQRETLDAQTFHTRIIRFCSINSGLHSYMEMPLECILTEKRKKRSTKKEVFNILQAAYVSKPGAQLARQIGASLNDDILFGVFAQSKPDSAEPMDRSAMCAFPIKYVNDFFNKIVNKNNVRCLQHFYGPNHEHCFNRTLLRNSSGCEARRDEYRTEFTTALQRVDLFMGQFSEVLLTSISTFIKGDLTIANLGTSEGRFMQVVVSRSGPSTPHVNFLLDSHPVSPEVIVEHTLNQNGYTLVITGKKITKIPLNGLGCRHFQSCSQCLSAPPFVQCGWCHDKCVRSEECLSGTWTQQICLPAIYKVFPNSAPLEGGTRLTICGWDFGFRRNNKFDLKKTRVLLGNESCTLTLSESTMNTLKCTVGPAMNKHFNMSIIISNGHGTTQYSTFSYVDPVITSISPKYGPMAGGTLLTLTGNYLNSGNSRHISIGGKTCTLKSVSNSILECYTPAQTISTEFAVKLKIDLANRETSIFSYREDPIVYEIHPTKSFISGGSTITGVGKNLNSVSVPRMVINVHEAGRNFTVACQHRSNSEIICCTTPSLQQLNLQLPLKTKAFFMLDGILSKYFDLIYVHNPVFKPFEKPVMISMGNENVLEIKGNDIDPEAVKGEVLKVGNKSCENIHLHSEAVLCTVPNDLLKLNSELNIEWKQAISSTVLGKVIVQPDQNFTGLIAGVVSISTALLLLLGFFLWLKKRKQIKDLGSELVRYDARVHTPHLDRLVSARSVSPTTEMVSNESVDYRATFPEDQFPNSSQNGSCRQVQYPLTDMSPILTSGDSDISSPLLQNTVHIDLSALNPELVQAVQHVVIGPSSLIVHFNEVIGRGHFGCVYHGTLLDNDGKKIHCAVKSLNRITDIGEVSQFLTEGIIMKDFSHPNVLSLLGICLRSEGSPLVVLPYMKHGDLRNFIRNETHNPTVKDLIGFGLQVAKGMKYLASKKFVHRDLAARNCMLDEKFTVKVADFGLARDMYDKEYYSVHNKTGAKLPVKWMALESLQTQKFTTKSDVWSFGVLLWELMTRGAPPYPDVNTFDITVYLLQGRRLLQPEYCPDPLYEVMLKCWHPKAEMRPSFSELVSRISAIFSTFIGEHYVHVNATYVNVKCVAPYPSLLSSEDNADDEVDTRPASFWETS", "experiment": "Inhibition of human c-MET assessed as residual activity at 10 uM using KKKSPGEYVNIEFG as substrate preincubated for 20 mins followed by [gamma-33P]-ATP addition and measured after 120 mins by Hotspot assay relative to control"}, "[3]": {"tested_on": "MV4-11", "experiment": "Induction of apoptosis in human MV4-11 cells assessed as necrotic cells at 0.5 uM after 24 hrs by Annexin V-FITC/propidium iodide staining based flow cytometric analysis (reference value: 0%)", "format": "functional"}, "[4]": {"tested_on": "MOLM-13", "experiment": "Growth inhibition of human MOLM13 cells harboring FLT3 ITD mutant at 10 uM after 72 hrs by CellTiter-Glo assay relative to control", "format": "functional", "details": "MOLM-13, 72 h, read-out: GI"}, "[5]": {"biological_target": "Dual specificity mitogen-activated protein kinase kinase 1 (Homo sapiens) (UniProt Q02750)", "sequence (Q02750 whole entry)": "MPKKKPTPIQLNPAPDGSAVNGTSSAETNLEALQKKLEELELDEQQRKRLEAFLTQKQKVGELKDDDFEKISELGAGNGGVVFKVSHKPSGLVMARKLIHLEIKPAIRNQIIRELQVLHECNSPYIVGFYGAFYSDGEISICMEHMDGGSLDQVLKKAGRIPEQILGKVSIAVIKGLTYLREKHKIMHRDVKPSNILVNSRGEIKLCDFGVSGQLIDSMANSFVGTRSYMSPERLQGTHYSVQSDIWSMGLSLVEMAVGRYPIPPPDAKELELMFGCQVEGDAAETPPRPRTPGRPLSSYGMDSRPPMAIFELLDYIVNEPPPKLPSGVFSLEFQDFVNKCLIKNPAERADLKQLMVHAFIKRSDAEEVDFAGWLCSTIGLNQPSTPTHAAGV", "experiment": "Inhibition of human MEK1 assessed as residual activity at 10 uM using ERK2 as substrate preincubated for 20 mins followed by [gamma-33P]-ATP addition and measured after 120 mins by Hotspot assay relative to control"}, "[6]": {"biological_target": "Cyclin-dependent kinase 5/CDK5 activator 1 (Homo sapiens) (UniProt Q00535+Q15078)", "sequence (Q00535 whole entry)": "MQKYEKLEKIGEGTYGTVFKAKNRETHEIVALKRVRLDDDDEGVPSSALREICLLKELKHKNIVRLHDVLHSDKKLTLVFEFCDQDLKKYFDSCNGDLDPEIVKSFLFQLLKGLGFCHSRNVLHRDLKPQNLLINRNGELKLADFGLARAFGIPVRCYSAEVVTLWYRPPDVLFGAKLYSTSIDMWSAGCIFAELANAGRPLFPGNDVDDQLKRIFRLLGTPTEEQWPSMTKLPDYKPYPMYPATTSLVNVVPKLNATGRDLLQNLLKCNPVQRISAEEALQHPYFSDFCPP", "sequence (Q15078 99-307 partner limits assumed)": "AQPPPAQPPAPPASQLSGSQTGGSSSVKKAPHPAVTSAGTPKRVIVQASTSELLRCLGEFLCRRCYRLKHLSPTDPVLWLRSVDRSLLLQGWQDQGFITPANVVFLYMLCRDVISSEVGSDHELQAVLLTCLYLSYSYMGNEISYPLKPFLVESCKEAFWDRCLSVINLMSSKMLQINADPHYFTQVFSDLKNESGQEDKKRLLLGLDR", "experiment": "Inhibition of human CDK5/p25 assessed as residual activity at 10 uM using histone H1 as substrate preincubated for 20 mins followed by [gamma-33P]-ATP addition and measured after 120 mins by Hotspot assay relative to control", "format": "protein-complex assay"}, "[7]": {"tested_on": "MV4-11", "experiment": "Induction of apoptosis in human MV4-11 cells assessed as late apoptotic cells at 0.5 uM after 24 hrs by Annexin V-FITC/propidium iodide staining based flow cytometric analysis (reference value: 1.42%)", "format": "functional"}, "[8]": {"biological_target": "CDK2/Cyclin A2 (Homo sapiens) (UniProt P24941+P20248)", "experiment": "Inhibition of human CDK2/cyclin-A assessed as residual activity at 10 uM using histone H1 as substrate preincubated for 20 mins followed by [gamma-33P]-ATP addition and measured after 120 mins by Hotspot assay relative to control", "format": "protein-complex assay"}, "[9]": {"tested_on": "HL-60", "experiment": "Growth inhibition of human HL60 cells harboring WT FLT3 at 10 uM after 72 hrs by CellTiter-Glo assay relative to control", "format": "functional", "details": "HL-60, 72 h, read-out: GI"}, "[10]": {"biological_target": "Proto-oncogene tyrosine-protein kinase Src (Homo sapiens, UniProt P12931)", "sequence (P12931 2-536 limits assumed)": "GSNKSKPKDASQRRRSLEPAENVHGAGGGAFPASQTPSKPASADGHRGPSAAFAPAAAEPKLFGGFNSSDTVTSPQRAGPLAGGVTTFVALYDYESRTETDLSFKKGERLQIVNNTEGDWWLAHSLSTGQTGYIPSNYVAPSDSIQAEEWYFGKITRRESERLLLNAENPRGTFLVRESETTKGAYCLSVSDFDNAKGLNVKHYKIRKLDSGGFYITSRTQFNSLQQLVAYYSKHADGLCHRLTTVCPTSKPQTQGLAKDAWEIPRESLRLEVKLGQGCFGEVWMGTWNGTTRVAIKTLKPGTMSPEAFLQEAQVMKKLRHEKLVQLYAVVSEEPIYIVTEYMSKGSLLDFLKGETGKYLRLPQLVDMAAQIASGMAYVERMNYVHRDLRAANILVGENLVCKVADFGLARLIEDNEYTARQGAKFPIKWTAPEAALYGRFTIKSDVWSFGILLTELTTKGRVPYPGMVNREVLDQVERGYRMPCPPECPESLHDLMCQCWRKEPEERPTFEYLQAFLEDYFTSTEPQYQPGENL", "experiment": "Inhibition of human c-SRC assessed as residual activity at 10 uM using poly[Glu:Tyr] (4:1) as substrate preincubated for 20 mins followed by [gamma-33P]-ATP addition and measured after 120 mins by Hotspot assay relative to control"}, "[11]": {"tested_on": "MV4-11", "experiment": "Induction of apoptosis in human MV4-11 cells assessed as late apoptotic cells at 1 uM after 24 hrs by Annexin V-FITC/propidium iodide staining based flow cytometric analysis (reference value: 1.42%)", "format": "functional"}, "[12]": {"experiment": "Intrinsic clearance in human liver microsomes assessed per mg protein at 1 uM after 5 to 60 mins in presence of NADPH by LC-MS/MS analysis", "format": "ADME, Microsome", "details": "read-out: CLH"}, "[13]": {"biological_target": "Mitogen-activated protein kinase 3 (Homo sapiens) (UniProt P27361)", "experiment": "Inhibition of human ERK1 assessed as residual activity at 10 uM using MBP as substrate preincubated for 20 mins followed by [gamma-33P]-ATP addition and measured after 120 mins by Hotspot assay relative to control"}, "[14]": {"tested_on": "MV4-11", "experiment": "Induction of apoptosis in human MV4-11 cells assessed as early apoptotic cells at 0.5 uM after 24 hrs by Annexin V-FITC/propidium iodide staining based flow cytometric analysis (reference value: 3.39%)", "format": "functional"}, "[15]": {"experiment": "Half life in human liver microsomes at 1 uM after 5 to 60 mins in presence of NADPH by LC-MS/MS analysis", "format": "ADME, Microsome"}, "[16]": {"tested_on": "HuT78", "experiment": "Growth inhibition of human HUT78 cells at 10 uM after 72 hrs by CellTiter-Glo assay relative to control", "format": "functional", "details": "HuT78, 72 h, read-out: GI"}, "[17]": {"tested_on": "MV4-11", "experiment": "Induction of apoptosis in human MV4-11 cells after 24 hrs by Annexin V-FITC/propidium iodide staining based flow cytometric analysis", "format": "functional, cell-based"}, "[18]": {"biological_target": "Platelet-derived growth factor receptor alpha (Homo sapiens, UniProt P16234)", "experiment": "Inhibition of human PDGFRalpha using poly[Glu:Tyr] (4:1) as substrate preincubated for 20 mins followed by [gamma-33P]-ATP addition and measured after 120 mins by Hotspot assay"}, "[19]": {"biological_target": "Macrophage colony-stimulating factor 1 receptor (Homo sapiens, UniProt P07333)", "sequence (P07333 whole entry, the tested form may be a part)": "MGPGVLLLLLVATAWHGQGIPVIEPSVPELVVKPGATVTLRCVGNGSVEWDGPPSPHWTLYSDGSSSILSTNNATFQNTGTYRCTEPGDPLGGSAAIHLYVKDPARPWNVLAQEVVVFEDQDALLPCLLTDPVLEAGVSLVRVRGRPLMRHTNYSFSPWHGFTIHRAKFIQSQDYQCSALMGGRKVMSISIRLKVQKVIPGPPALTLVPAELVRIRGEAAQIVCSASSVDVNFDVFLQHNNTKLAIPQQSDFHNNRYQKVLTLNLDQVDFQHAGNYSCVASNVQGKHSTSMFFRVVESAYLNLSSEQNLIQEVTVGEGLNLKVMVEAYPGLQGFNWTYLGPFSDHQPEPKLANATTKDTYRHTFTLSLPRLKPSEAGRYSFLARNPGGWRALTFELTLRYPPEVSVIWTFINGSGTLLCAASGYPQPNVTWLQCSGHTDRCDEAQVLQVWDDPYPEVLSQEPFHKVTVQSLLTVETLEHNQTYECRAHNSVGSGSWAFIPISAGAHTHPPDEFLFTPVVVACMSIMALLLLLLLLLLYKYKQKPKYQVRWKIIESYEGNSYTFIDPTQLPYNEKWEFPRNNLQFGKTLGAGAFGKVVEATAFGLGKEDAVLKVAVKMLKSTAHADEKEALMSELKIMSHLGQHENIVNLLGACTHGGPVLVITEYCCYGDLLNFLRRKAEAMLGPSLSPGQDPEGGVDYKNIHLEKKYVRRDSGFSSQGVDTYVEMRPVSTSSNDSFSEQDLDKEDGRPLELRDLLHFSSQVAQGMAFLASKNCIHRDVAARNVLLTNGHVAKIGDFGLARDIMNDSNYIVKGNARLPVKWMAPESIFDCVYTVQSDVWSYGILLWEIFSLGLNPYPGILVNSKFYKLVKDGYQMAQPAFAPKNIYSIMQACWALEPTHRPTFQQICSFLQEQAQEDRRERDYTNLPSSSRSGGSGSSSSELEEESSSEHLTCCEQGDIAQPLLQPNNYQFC", "experiment": "Binding affinity to wild-type human partial length autoinhibited CSF1R (Y538 to S939 residues) expressed in mammalian expression system after 60 mins by Kinomescan method"}, "[20]": {"tested_on": "MV4-11", "experiment": "Induction of apoptosis in human MV4-11 cells assessed as late apoptotic cells at 0.02 uM after 24 hrs by Annexin V-FITC/propidium iodide staining based flow cytometric analysis (reference value: 1.42%)", "format": "functional"}, "[21]": {"tested_on": "MV4-11", "experiment": "Induction of apoptosis in human MV4-11 cells assessed as necrotic cells at 0.1 uM after 24 hrs by Annexin V-FITC/propidium iodide staining based flow cytometric analysis (reference value: 0%)", "format": "functional"}, "[22]": {"biological_target": "Calcium/calmodulin-dependent protein kinase type 1 (Homo sapiens) (UniProt Q14012)", "sequence (Q14012 whole entry, looked up)": "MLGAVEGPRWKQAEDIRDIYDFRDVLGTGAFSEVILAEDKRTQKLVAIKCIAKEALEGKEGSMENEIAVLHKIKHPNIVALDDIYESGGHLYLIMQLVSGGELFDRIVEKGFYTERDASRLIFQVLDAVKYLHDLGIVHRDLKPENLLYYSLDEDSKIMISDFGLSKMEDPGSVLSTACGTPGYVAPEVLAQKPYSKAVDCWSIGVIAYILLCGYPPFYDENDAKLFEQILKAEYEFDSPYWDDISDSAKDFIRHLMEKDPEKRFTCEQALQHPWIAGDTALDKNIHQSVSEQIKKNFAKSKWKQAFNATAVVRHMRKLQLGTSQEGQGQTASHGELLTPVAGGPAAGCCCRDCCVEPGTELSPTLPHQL", "experiment": "Inhibition of human CAMK1A assessed as residual activity at 10 uM using KKALRRQETVDAL as substrate preincubated for 20 mins followed by [gamma-33P]-ATP addition and measured after 120 mins by Hotspot assay relative to control"}, "[23]": {"tested_on": "MV4-11", "experiment": "Induction of apoptosis in human MV4-11 cells assessed as early apoptotic cells at 0.02 uM after 24 hrs by Annexin V-FITC/propidium iodide staining based flow cytometric analysis (reference value: 3.39%)", "format": "functional"}, "[24]": {"biological_target": "Serine/threonine-protein kinase pim-1 (Homo sapiens) (UniProt P11309)", "sequence (P11309 whole entry, looked up)": "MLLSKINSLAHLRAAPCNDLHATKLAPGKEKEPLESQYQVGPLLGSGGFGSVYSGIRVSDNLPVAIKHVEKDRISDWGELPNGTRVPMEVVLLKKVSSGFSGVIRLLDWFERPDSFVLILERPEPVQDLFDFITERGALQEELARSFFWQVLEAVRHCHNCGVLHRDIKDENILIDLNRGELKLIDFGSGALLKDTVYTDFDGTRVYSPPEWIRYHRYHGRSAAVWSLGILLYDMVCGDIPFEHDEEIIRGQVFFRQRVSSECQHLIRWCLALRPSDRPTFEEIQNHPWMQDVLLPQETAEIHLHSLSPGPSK", "experiment": "Inhibition of human PIM1 assessed as residual activity at 10 uM using KKRNRTLTK as substrate preincubated for 20 mins followed by [gamma-33P]-ATP addition and measured after 120 mins by Hotspot assay relative to control"}, "[25]": {"tested_on": "MV4-11", "experiment": "Induction of apoptosis in human MV4-11 cells assessed as late apoptotic cells at 0.1 uM after 24 hrs by Annexin V-FITC/propidium iodide staining based flow cytometric analysis (reference value: 1.42%)", "format": "functional"}, "[26]": {"experiment": "Half life in rat liver microsomes at 1 uM after 5 to 60 mins in presence of NADPH by LC-MS/MS analysis", "format": "ADME, Microsome"}, "[27]": {"biological_target": "Serine/threonine-protein kinase Chk1 (Homo sapiens, UniProt O14757)", "sequence (O14757 whole entry)": "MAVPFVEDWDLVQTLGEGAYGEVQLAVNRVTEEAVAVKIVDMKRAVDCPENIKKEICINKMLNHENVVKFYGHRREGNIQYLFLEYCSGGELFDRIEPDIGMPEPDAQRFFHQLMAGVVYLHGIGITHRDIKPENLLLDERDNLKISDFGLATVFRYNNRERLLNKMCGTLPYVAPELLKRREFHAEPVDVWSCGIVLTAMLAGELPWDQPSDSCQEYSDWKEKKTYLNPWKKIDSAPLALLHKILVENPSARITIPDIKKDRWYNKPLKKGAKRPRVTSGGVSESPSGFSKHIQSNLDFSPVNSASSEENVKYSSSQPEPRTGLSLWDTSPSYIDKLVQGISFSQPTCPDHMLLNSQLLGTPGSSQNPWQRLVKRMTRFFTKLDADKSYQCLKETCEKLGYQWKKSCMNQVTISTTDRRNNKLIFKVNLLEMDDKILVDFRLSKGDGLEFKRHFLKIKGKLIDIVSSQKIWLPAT", "experiment": "Inhibition of human CHK1 using KKKVSRSGLYRSPSMPENLNRPR as substrate preincubated for 20 mins followed by [gamma-33P]-ATP addition and measured after 120 mins by Hotspot assay"}, "[28]": {"tested_on": "MV4-11", "experiment": "Induction of apoptosis in human MV4-11 cells assessed as viable cells at 0.1 uM after 24 hrs by Annexin V-FITC/propidium iodide staining based flow cytometric analysis (reference value: 95.19%)", "format": "functional", "details": "MV4-11, 24 h, read-out: Activity"}}}
{"smiles": "CN1CCC(Nc2ccc(C(=O)Nc3cc(-c4cc(C#N)cs4)n[nH]3)cc2)CC1", "values": [{"measurement": "Activity", "setting": "[1]", "result": 14.4, "unit": "%"}, {"measurement": "Activity", "setting": "[2]", "result": 74.5, "unit": "%"}, {"measurement": "Activity", "setting": "[3]", "result": 4.89, "unit": "%"}, {"measurement": "inhibition of growth at 10 µM", "setting": "[4]", "result": 92.1, "unit": "%"}, {"measurement": "Activity", "setting": "[5]", "result": 91.9, "unit": "%"}, {"measurement": "Activity", "setting": "[6]", "result": 60.4, "unit": "%"}, {"measurement": "Activity", "setting": "[7]", "result": 26.68, "unit": "%"}, {"measurement": "Activity", "setting": "[8]", "result": 66.8, "unit": "%"}, {"measurement": "inhibition of growth at 10 µM", "setting": "[9]", "result": 10.2, "unit": "%"}, {"measurement": "Activity", "setting": "[10]", "result": 17.9, "unit": "%"}, {"measurement": "Activity", "setting": "[11]", "result": 27.75, "unit": "%"}, {"measurement": "microsomal CLint at 1 µM", "setting": "[12]", "result": 22.4, "unit": "µL/min/mg"}, {"measurement": "Activity", "setting": "[13]", "result": 87.6, "unit": "%"}, {"measurement": "Activity", "setting": "[14]", "result": 28.65, "unit": "%"}, {"measurement": "half-life at 1 µM", "setting": "[15]", "result": 61.9, "unit": "min"}, {"measurement": "inhibition of growth at 10 µM", "setting": "[16]", "result": 3.9, "unit": "%"}, {"measurement": "Activity", "setting": "[17]", "result": "Dose-dependent effect"}, {"measurement": "IC50", "setting": "[18]", "result": 3640, "unit": "nM"}, {"measurement": "Kd", "setting": "[19]", "result": 84, "unit": "nM"}, {"measurement": "Activity", "setting": "[20]", "result": 11.3, "unit": "%"}, {"measurement": "Activity", "setting": "[21]", "result": 3, "unit": "%"}, {"measurement": "Activity", "setting": "[22]", "result": 48.5, "unit": "%"}, {"measurement": "Activity", "setting": "[23]", "result": 17.09, "unit": "%"}, {"measurement": "Activity", "setting": "[24]", "result": 5.11, "unit": "%"}, {"measurement": "Activity", "setting": "[25]", "result": 15.97, "unit": "%"}, {"measurement": "half-life at 1 µM", "setting": "[26]", "result": 8.1, "unit": "min"}, {"measurement": "IC50", "setting": "[27]; read-out: IC50", "result": 1530, "unit": "nM"}, {"measurement": "IC50", "setting": "[27]; read-out: pIC50 (converted)", "result": 1580, "unit": "nM"}, {"measurement": "viability at 0.1 µM", "setting": "[28]", "result": 56.8, "unit": "%"}]}
